In US12723128B2, “Aromatic diol compounds, diepoxide compounds, polymers prepared from such compounds, and methods for making the same” (SWIMC LLC, priority 2020, dated 2026):

Test: Stability by differential scanning calorimetry (DSC)
Format: physicochemical
Conditions: FIG. 7
Protocol: In Example 9, the stability of the diglycidyl ether of Example 4B (cyclohexanone 2,6 methylene bis (2-furan, 5-methanol glycidyl ether)) was tested using differential scanning calorimetry (“DSC”).

Stability (stable up to): up to 180 °C
SMILES: O=C1/C(=C/c2ccc(COCC3CO3)o2)CCC/C1=C\c1ccc(COCC2CO2)o1 (stereo not shown) [Example 4B, cyclohexanone 2,6 methylene bis (2-furan, 5-methanol glycidyl ether)]
